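The compound was tested at five concentrations on cells cultured in 96-well plates, with a 48-hour exposure period. The concentration for full growth arrest is given as TGI.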 Calls of active or inactive are those of the source. Cut-off read from the data, not from the text of the source: active = GI50 below about 0.43 µM; inactive = the rest.
How the values were obtained:
Assay in all cases: growth of human tumour cells (NCI), 48 h
K-562 leukemia = system: K-562 leukemia
A498 renal = system: A498 renal
MALME-3M melanoma = system: MALME-3M melanoma
SW-620 colon = system: SW-620 colon
SK-OV-3 ovarian = system: SK-OV-3 ovarian
KM20L2 colon = system: KM20L2 colon
UO-31 renal = system: UO-31 renal
OVCAR-4 ovarian = system: OVCAR-4 ovarian
M14 melanoma = system: M14 melanoma
SK-MEL-2 melanoma = system: SK-MEL-2 melanoma
NCI-H522 lung = system: NCI-H522 lung
RPMI-8226 leukemia = system: RPMI-8226 leukemia
LXFL 529 NSCLC = system: LXFL 529 NSCLC
U251 CNS = system: U251 CNS
HT29 colon = system: HT29 colon
HCT-15 colon = system: HCT-15 colon
SF-268 CNS = system: SF-268 CNS
NCI-H460 lung = system: NCI-H460 lung
SK-MEL-28 melanoma = system: SK-MEL-28 melanoma
786-0 renal = system: 786-0 renal
EKVX NSCLC = system: EKVX NSCLC
SR leukemia = system: SR leukemia
OVCAR-8 ovarian = system: OVCAR-8 ovarian
OVCAR-5 ovarian = system: OVCAR-5 ovarian
UACC-257 melanoma = system: UACC-257 melanoma
IGROV1 ovarian = system: IGROV1 ovarian
DMS 114 small cell lung = system: DMS 114 small cell lung
OVCAR-3 ovarian = system: OVCAR-3 ovarian
UACC-62 melanoma = system: UACC-62 melanoma
M19-MEL melanoma = system: M19-MEL melanoma
SN12C renal = system: SN12C renal
NCI-H23 lung = system: NCI-H23 lung
HCT-116 colon = system: HCT-116 colon
SNB-19 CNS = system: SNB-19 CNS
RXF 393 renal = system: RXF 393 renal
CCRF-CEM leukemia = system: CCRF-CEM leukemia
DMS 273 small cell lung = system: DMS 273 small cell lung
KM12 colon = system: KM12 colon
HOP-62 NSCLC = system: HOP-62 NSCLC
HL-60(TB) leukemia = system: HL-60(TB) leukemia
NCI-H226 lung = system: NCI-H226 lung
SF-295 CNS = system: SF-295 CNS
SNB-75 CNS = system: SNB-75 CNS
SF-539 CNS = system: SF-539 CNS
ACHN renal = system: ACHN renal
MOLT-4 leukemia = system: MOLT-4 leukemia
A549 NSCLC = system: A549 NSCLC
COLO 205 colon = system: COLO 205 colon
TK-10 renal = system: TK-10 renal
HCC-2998 colon = system: HCC-2998 colon
LOX IMVI melanoma = system: LOX IMVI melanoma
SNB-78 CNS = system: SNB-78 CNS
HOP-92 NSCLC = system: HOP-92 NSCLC
CAKI-1 renal = system: CAKI-1 renal
DLD-1 colon = system: DLD-1 colon

SMILES: O=C1C=C(Nc2ccc(Br)cc2)c2ccccc2C1=O
- TGI (K-562 leukemia): 34 µM
- TGI (A498 renal): 31 µM
- TGI (MALME-3M melanoma): 28.7 µM
- TGI (SW-620 colon): 27.2 µM
- TGI (SK-OV-3 ovarian): 31 µM
- TGI (KM20L2 colon): 39.3 µM
- TGI (UO-31 renal): 29.6 µM
- TGI (OVCAR-4 ovarian): 6.13 µM
- TGI (M14 melanoma): 28.8 µM
- TGI (SK-MEL-2 melanoma): 30.1 µM
- TGI (NCI-H522 lung): 25.5 µM
- TGI (RPMI-8226 leukemia): 24.9 µM
- TGI (LXFL 529 NSCLC): 25.4 µM
- TGI (U251 CNS): 16 µM
- TGI (HT29 colon): 34 µM
- TGI (HCT-15 colon): 18.9 µM
- TGI (SF-268 CNS): 27.6 µM
- TGI (NCI-H460 lung): 23.8 µM
- TGI (SK-MEL-28 melanoma): 31.3 µM
- TGI (786-0 renal): 28.3 µM
- TGI (EKVX NSCLC): 32.5 µM
- TGI (SR leukemia): 16.5 µM
- TGI (OVCAR-8 ovarian): 29.3 µM
- TGI (OVCAR-5 ovarian): 35.3 µM
- TGI (UACC-257 melanoma): 26.5 µM
- TGI (IGROV1 ovarian): 33.2 µM
- TGI (DMS 114 small cell lung): 18 µM
- TGI (OVCAR-3 ovarian): 19.7 µM
- TGI (UACC-62 melanoma): 15.3 µM
- TGI (M19-MEL melanoma): 3.29 µM
- TGI (SN12C renal): 29.6 µM
- TGI (NCI-H23 lung): 15.3 µM
- TGI (HCT-116 colon): 26.5 µM
- TGI (SNB-19 CNS): 29.2 µM
- TGI (RXF 393 renal): 30.6 µM
- TGI (CCRF-CEM leukemia): 32.3 µM
- TGI (DMS 273 small cell lung): 25.7 µM
- TGI (KM12 colon): 29.6 µM
- TGI (HOP-62 NSCLC): 30.7 µM
- TGI (HL-60(TB) leukemia): 22.4 µM
- TGI (NCI-H226 lung): 38.2 µM
- TGI (SF-295 CNS): 29.8 µM
- TGI (SNB-75 CNS): 23.3 µM
- TGI (SF-539 CNS): 30.3 µM
- TGI (ACHN renal): 16.2 µM
- TGI (MOLT-4 leukemia): 30.5 µM
- TGI (A549 NSCLC): 32.8 µM
- TGI (COLO 205 colon): 31 µM
- TGI (TK-10 renal): 33.8 µM
- TGI (HCC-2998 colon): 28.5 µM

SMILES: O=C1CC2CC(O1)[C@H]1O[C@H]1C2 (some centres not stated)
- outcome (K-562 leukemia): inactive
- outcome (MALME-3M melanoma): inactive
- outcome (SW-620 colon): inactive
- outcome (SK-OV-3 ovarian): inactive
- outcome (KM20L2 colon): inactive
- outcome (UO-31 renal): inactive
- outcome (OVCAR-4 ovarian): inactive
- outcome (M14 melanoma): inactive
- outcome (SK-MEL-2 melanoma): inactive
- outcome (NCI-H522 lung): inactive
- outcome (RPMI-8226 leukemia): inactive
- outcome (LOX IMVI melanoma): inactive
- outcome (SNB-78 CNS): inactive
- outcome (LXFL 529 NSCLC): inactive
- outcome (U251 CNS): inactive
- outcome (HT29 colon): inactive
- outcome (HCT-15 colon): inactive
- outcome (SF-268 CNS): inactive
- outcome (NCI-H460 lung): inactive
- outcome (786-0 renal): inactive
- outcome (EKVX NSCLC): inactive
- outcome (SR leukemia): inactive
- outcome (OVCAR-8 ovarian): inactive
- outcome (OVCAR-5 ovarian): inactive
- outcome (UACC-257 melanoma): inactive
- outcome (IGROV1 ovarian): inactive
- outcome (DMS 114 small cell lung): inactive
- outcome (OVCAR-3 ovarian): inactive
- outcome (UACC-62 melanoma): inactive
- outcome (M19-MEL melanoma): inactive
- outcome (SN12C renal): inactive
- outcome (NCI-H23 lung): inactive
- outcome (HCT-116 colon): inactive
- outcome (SNB-19 CNS): inactive
- outcome (RXF 393 renal): inactive
- outcome (CCRF-CEM leukemia): inactive
- outcome (DMS 273 small cell lung): inactive
- outcome (KM12 colon): inactive
- outcome (HOP-92 NSCLC): inactive
- outcome (HOP-62 NSCLC): inactive
- outcome (HL-60(TB) leukemia): inactive
- outcome (NCI-H226 lung): inactive
- outcome (SF-295 CNS): inactive
- outcome (SNB-75 CNS): inactive
- outcome (SF-539 CNS): inactive
- outcome (CAKI-1 renal): inactive
- outcome (DLD-1 colon): inactive
- outcome (ACHN renal): inactive
- outcome (MOLT-4 leukemia): inactive
- outcome (A549 NSCLC): inactive
- outcome (COLO 205 colon): inactive
- outcome (HCC-2998 colon): inactive
